Reference: patent publication US8697385B1, “Protein controlling synthesis of collagen and associated methods” (Florida State University Research Foundation, Inc., priority 2009, dated 2014)

Key:
Assay type in all cases: cell-based, human
polysomes = test: Fractionation of polysomes on sucrose gradients; conditions: 15-45% sucrose gradient, Western blot; puromycin or ML-7 treatment
Experimental: ML-7, blebbistatin, cytochalasin B, puromycin, and cycloheximide were purchased from Sigma. ML-7 was used at 40 μM, blebbistatin was used at 100 μM, and cytochalasin B was used at 20 μM. Cells were incubated with the drugs for 16 h before analysis. Puromycin (200 μg/ml) and cycloheximide (100 μg/ml) were added to the cells for 2 h. Human lung fibroblasts have been described previously.16 Scleroderma fibroblasts were purchased from the European Collection of Cell Cultures (cell line BM0070) and derived from the skin of a scleroderma patient. MEFs were derived from knock-in mice in which the 5′SL of the collagen α1(I) gene has been mutated (Parsons et al., submitted). Several independent cell isolates were used throughout the study. All cells were cultured in Dulbecco's modified Eagle's medium supplemented with 10% fetal bovine serum for up to 10 passages. Plasmid constructs and adenovirus preparation. The HA-tagged LARP6 clone and the deletion mutants have been described previously.^16 Adenoviruses were constructed by recloning of the constructs into the pAdCMVTRACK vector, followed by recombination with the pAdEasy vector and amplification, as described previously.^48 Expression of each construct was verified by Western blot analysis. The viruses made express both the full-size test protein and the green fluorescent protein (GFP), which is encoded by an independent transcription unit.^48 Expression of GFP served as control for viral transduction. RT-PCR analysis Total cellular RNA was isolated using an RNA isolation kit (Sigma). RT-PCRs were performed with 100 ng of total RNA or using rTth reverse transcriptase (Boca Scientific, Boca Raton, Fla.). [^32P]dCTP was included in the PCR step to label the products, which were resolved on sequencing gels, as described previously.^8,31,49,50 When RNA from polysomal fractions was analyzed, an equal aliquot of each fraction was used. The number of cycles was adjusted to within the linear range of the reaction. The primers used for RT-PCR were as follows: h-collagen α1(I), 5′ primer […] (SEQ ID NO:3) and 3′ primer […] (SEQ ID NO:4); h-collagen α2(I), 5′ primer […] (SEQ ID NO:5) and 3′ primer […] (SEQ ID NO:6).
Polysomes were fractionated as described previously.^16 Sucrose fractions (0.5 ml) were collected, and total RNA was extracted by phenol/chloroform and isopropanol precipitation. Equivalent amounts of each fraction were analyzed by RT-PCR. Total proteins were extracted from sucrose fractions by trichloroacetic acid precipitation, and equivalent amounts were analyzed by Western blot analysis.
One of the roles of nonmuscle myosin filaments may be to present collagen mRNAs to ribosomes. Therefore, we assessed if the association of collagen mRNAs with nonmuscle myosin is dependent on intact polysomes. […] Only the anti-myosin antibody immunoprecipitated collagen α1(I) and α2(I) mRNAs (lane 1). We then immunoprecipitated nonmuscle myosin from lung fibroblasts treated with cycloheximide or puromycin and analyzed if this can change the pull-down of collagen mRNAs. As control, the association with vimentin was analyzed in the same samples (FIG. 9b). […] The association of collagen mRNAs with vimentin increased after the dissociation of polysomes (lanes 3 and 4). […] To assess if nonmuscle myosin copurifies with polysomes, we fractionated polysomes on sucrose gradients^16 and analyzed for the presence of nonmuscle myosin in the fractions using Western blot analysis (FIG. 9f). […]

myosin IIB = test: Western blot analysis of total nonmuscle myosin IIB level; conditions: lung fibroblasts; puromycin 200 μg/ml 2 h vs cycloheximide-treated cells
Experimental: (§1) ML-7, blebbistatin, cytochalasin B, puromycin, and cycloheximide were purchased from Sigma. ML-7 was used at 40 μM, blebbistatin was used at 100 μM, and cytochalasin B was used at 20 μM. Cells were incubated with the drugs for 16 h before analysis. Puromycin (200 μg/ml) and cycloheximide (100 μg/ml) were added to the cells for 2 h. Human lung fibroblasts have been described previously.16 Scleroderma fibroblasts were purchased from the European Collection of Cell Cultures (cell line BM0070) and derived from the skin of a scleroderma patient. MEFs were derived from knock-in mice in which the 5′SL of the collagen α1(I) gene has been mutated (Parsons et al., submitted). Several independent cell isolates were used throughout the study. All cells were cultured in Dulbecco's modified Eagle's medium supplemented with 10% fetal bovine serum for up to 10 passages. […] [^32P]dCTP was included in the PCR step to label the products, which were resolved on sequencing gels, as described previously.^8,31,49,50 When RNA from polysomal fractions was analyzed, an equal aliquot of each fraction was used. […]
Protein concentration was estimated by the Bradford assay, with bovine serum albumin as standard.^51 Western blot analyses of cellular proteins were performed using 50 μg of protein. […] The medium was collected, and an aliquot was analyzed directly by Western blot analysis. […]

vimentin = test: Immunoprecipitation of vimentin and RT-PCR of collagen mRNAs; conditions: lung fibroblasts; puromycin (dissociation of polysomes) vs cycloheximide
Experimental: as §1, with “submitted).” for “submitted). Several independent cell isolates were used throughout the study. All cells were cultured in Dulbecco's modified Eagle's medium supplemented with 10% fetal bovine serum for up to 10 passages.”
(§2) One of the roles of nonmuscle myosin filaments may be to present collagen mRNAs to ribosomes. Therefore, we assessed if the association of collagen mRNAs with nonmuscle myosin is dependent on intact polysomes. […] We then immunoprecipitated nonmuscle myosin from lung fibroblasts treated with cycloheximide or puromycin and analyzed if this can change the pull-down of collagen mRNAs. As control, the association with vimentin was analyzed in the same samples (FIG. 9b). […]

[1] = tested on: LARP6 and nonmuscle myosin; test: Coimmunoprecipitation of nonmuscle myosin IIB with HA-tagged LARP6; conditions: lung fibroblasts; puromycin 200 μg/ml 2 h vs cycloheximide
Experimental: as §1, with “passages. Plasmid constructs and adenovirus preparation.” for “passages.”
One of the roles of nonmuscle myosin filaments may be to present collagen mRNAs to ribosomes. Therefore, we assessed if the association of collagen mRNAs with nonmuscle myosin is dependent on intact polysomes. […]

LARP6 and vimentin = test: Coimmunoprecipitation of vimentin with HA-tagged LARP6; conditions: lung fibroblasts; puromycin 200 μg/ml 2 h vs cycloheximide
Experimental: as §1, with “submitted).” for “submitted). Several independent cell isolates were used throughout the study. All cells were cultured in Dulbecco's modified Eagle's medium supplemented with 10% fetal bovine serum for up to 10 passages.”
as §2

nonmuscle myosin IIB = test: Immunoprecipitation of nonmuscle myosin IIB and RT-PCR of collagen mRNAs; conditions: lung fibroblasts; cycloheximide 100 μg/ml or puromycin 200 μg/ml, 2 h
Experimental: as §1, with “submitted).” for “submitted). Several independent cell isolates were used throughout the study. All cells were cultured in Dulbecco's modified Eagle's medium supplemented with 10% fetal bovine serum for up to 10 passages.”
as §2

## COc1ccc(C[C@H](N)C(=O)N[C@H]2[C@@H](O)[C@H](n3cnc4c(N(C)C)ncnc43)O[C@@H]2CO)cc1 [puromycin]
polysomes
  nonmuscle myosin in polysomal fractions: some nonmuscle myosin was lost, mostly from fractions 1-10
Myosin IIB
  total level of nonmuscle myosin: did not change
vimentin
  association of collagen mRNAs with vimentin: increased
[1]
  interaction of LARP6 and nonmuscle myosin: decreased
LARP6 and vimentin
  interaction of LARP6 with vimentin: increased
Nonmuscle myosin IIB
  collagen α1(I) and α2(I) mRNAs pulled down with nonmuscle myosin IIB: the great majority of these mRNAs were absent
